Key:
[1] = Estimate of maximal amount of lymphatic absorbed TU; conditions: 25% of solubility x 120 mg/g x 3.5 g triglyceride/10 h; formulation of 600 mg fat
From the text: The maximal amount of lymphatic absorbed TU can be estimated from the solubility of Testosterone Undecanoate in triglyceride and the transported triglyceride (Int. J. Pharm., vol. 34, 175-178, 1986).

[2] = cited from earlier work

Q: For `CCCCCCCCCCC(=O)O[C@H]1CC[C@H]2[C@@H]3CCC4=CC(=O)CC[C@]4(C)[C@H]3CC[C@]12C` [Testosterone Undecanoate], which “maximal amount of lymphatic absorbed TU” value [1] is on record?
A: Its value is roughly 100 mg.

Q: And the solubility in triglyceride [2]?
A: Its solubility in triglyceride is 120 mg/g.
